# Laboratory results published in US20240150423A1, “GLP-1 ANALOGUE-MODIFIED DIMERS WITH DIFFERENT CONFIGURATIONS, PREPARATION METHOD THEREOF, AND APPLICATION THEREOF IN TREATMENT OF TYPE II DIABETES” (Nanjing Finepeptide Biopharmaceutical Co.,Ltd, priority 2019, published 2024).
# Positions of bridges follow the written chain, without caps; N, C: chain ends. Non-standard residues stand in square brackets, D forms with d. Chains are numbered I, II in the order given. No end group written: not given here. bAib = not defined here; βAib = beta-Aib residue; Aib = CC(C)(N)C(=O)O; βAla = NCCC(=O)O
# Tested on: Normal Kunming (KM) mice
# Assay: multiple OGTT (mOGTT): hypoglycemic duration after a single administration
# Assay type: in vivo
# Conditions: monomeric peptides, single injection at the same dose (1.126 nmol), subcutaneous
# Method in brief: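 Tail blood glucose was followed by meter in normal KM mice after one dosing and glucose gavage, at 0, 10, 20, 40, 60 and 120 min. Measurement stopped when the treated mean rose above the NaCl group twice; the period before that is the effective duration.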
row,Substance,Hypoglycemic
1,His-aAib-Glu-Gly-Thr-Phe-Thr-Cys-Asp-Val-Ser-Ser-Tyr-Leu-Glu-Gly-Gln-Ala-Ala-Lys-Glu-Phe-Ile-Ala-Trp-Leu-Val-Arg-aAib-Arg-NH2 (H[Aib]EGTFTCDVSSYLEGQAAKEFIAWLVR[Aib]R-NH2; N-terminus assumed; SMILES CC[C@H](C)[C@H](NC(=O)[C@H](Cc1ccccc1)NC(=O)[C@H](CCC(=O)O)NC(=O)[C@H](CCCCN)NC(=O)[C@H](C)NC(=O)[C@H](C)NC(=O)[C@H](CCC(N)=O)NC(=O)CNC(=O)[C@H](CCC(=O)O)NC(=O)[C@H](CC(C)C)NC(=O)[C@H](Cc1ccc(O)cc1)NC(=O)[C@H](CO)NC(=O)[C@H](CO)NC(=O)[C@@H](NC(=O)[C@H](CC(=O)O)NC(=O)[C@H](CS)NC(=O)[C@@H](NC(=O)[C@H](Cc1ccccc1)NC(=O)[C@@H](NC(=O)CNC(=O)[C@H](CCC(=O)O)NC(=O)C(C)(C)NC(=O)[C@@H](N)Cc1c[nH]cn1)[C@@H](C)O)[C@@H](C)O)C(C)C)C(=O)N[C@@H](C)C(=O)N[C@@H](Cc1c[nH]c2ccccc12)C(=O)N[C@@H](CC(C)C)C(=O)N[C@H](C(=O)N[C@@H](CCCNC(=N)N)C(=O)NC(C)(C)C(=O)N[C@@H](CCCNC(=N)N)C(N)=O)C(C)C) [G8 series 64],2 days
2,His-βAla-Glu-Gly-Thr-Phe-Thr-Ser-Asp-Val-Cys-Ser-Tyr-Leu-Glu-Gly-Gln-Ala-Ala-Lys[N-ϵ-(N-α-oleoyl-L-γ-glutamyl)]-Glu-Phe-Ile-Ala-Trp-Leu-Val-Arg-Gly-Arg-Gly-NH2 (HXEGTFTSDVCSYLEGQAAXEFIAWLVRGRG; β-amino acid; oleoyl-γ-glutamyl on Lys; C-terminal amide; Sequence is synthesized; (2)..(2) Xaa is bAla; (20)..(20) Xaa is 26Lys[N-e-(N-a-oleoyl-L-g-glutamyl)]; (31)..(31) N-terminal) [G2 series 18],5 days
3,His-βAla-Glu-Gly-Thr-Phe-Thr-Ser-Asp-Val-Ser-Cys-Tyr-Leu-Glu-Gly-Gln-Ala-Ala-Lys[N-ϵ-(N-α-oleoyl)]-Glu-Phe-Ile-Ala-Trp-Leu-Val-Arg-Gly-Arg-Gly-NH2 (HXEGTFTSDVSCYLEGQAAXEFIAWLVRGRG; beta-amino acid; oleoyl on Lys side chain; C-terminal amide; Sequence is synthesized; (2)..(2) Xaa is bAla; (20)..(20) Xaa is 26Lys[N-e-(N-a-oleoyl-L-g-glutamyl)]; (31)..(31) N-terminal) [G4 series 39],5 days
4,His-βAla-Glu-Gly-Thr-Phe-Thr-Ser-Asp-Val-Ser-Cys-Tyr-Leu-Glu-Gly-Gln-Ala-Ala-Lys[N-ϵ-(N-α-oleoyl-L-γ-glutamy)]-Glu-Phe-Ile-Ala-Trp-Leu-Val-Arg-Gly-Arg-Gly-NH2 (HXEGTFTSDVSCYLEGQAAXEFIAWLVRGRG; beta-amino acid; oleoyl-gamma-Glu on Lys; C-terminal amide; Sequence is synthesized; (2)..(2) Xaa is bAla; (20)..(20) Xaa is 26Lys[N-e-(N-a-oleoyl-L-g-glutamyl)]; (31)..(31) N-terminal) [G6 series 50],4 days
5,His-Ala-Glu-Gly-Thr-Phe-Thr-Ser-Asp-Val-Cys-Ser-Tyr-Leu-Glu-Gly-Gln-Ala-Ala-Lys[N-ϵ-(N-α-Palmitoyl-L-γ-glutamyl)]-Glu-Phe-Ile-Ala-Trp-Leu-Val-Arg-Gly-Arg-Gly-NH2 (HAEGTFTSDVCSYLEGQAAXEFIAWLVRGRG; palmitoyl-γ-glutamyl on Lys; C-terminal amide; Sequence is synthesized; (20)..(20) Xaa is Xaa is 26Lys[N-e-(N-a-Palmitoyl-g-glutamyl)]; (31)..(31) N-terminal) [G2 series 8],5 days
6,His-aAib-Glu-Gly-Thr-Phe-Thr-Ser-Asp-Val-Cys-Ser-Tyr-Leu-Glu-Gly-Gln-Ala-Ala-Lys[N-ϵ-(N-α-Palmitoyl-γ-glutamyl)]-Glu-Phe-Ile-Ala-Trp-Leu-Val-Arg-Gly-Arg-Gly-NH2 (HXEGTFTSDVCSYLEGQAAXEFIAWLVRGRG; αAib; palmitoyl-γ-glutamyl on Lys; C-terminal amide; Sequence is synthesized; (2)..(2) Xaa is aAib; (20)..(20) Xaa is 26Lys[N-e-(N-a-Palmitoyl-g-glutamyl)]; (31)..(31) N-terminal) [G2 series 12],6 days
7,His-βAib-Glu-Gly-Thr-Phe-Thr-Cys-Asp-Val-Ser-Ser-Tyr-Leu-Glu-Gly-Gln-Ala-Ala-Lys-Glu-Phe-Ile-Ala-Trp-Leu-Val-Arg-βAib-Arg-NH2 (H[βAib]EGTFTCDVSSYLEGQAAKEFIAWLVR[βAib]R-NH2; also: disulfide-linked homodimer via Cys) [G8 series 67],2 days
8,His-βAla-Glu-Gly-Thr-Phe-Thr-Cys-Asp-Val-Ser-Ser-Tyr-Leu-Glu-Gly-Gln-Ala-Ala-Lys[N-ϵ-(N-α-oleoyl-L-γ-glutamyl)]-Glu-Phe-Ile-Ala-Trp-Leu-Val-Arg-Gly-Arg-Gly-NH2 (HXEGTFTCDVSSYLEGQAAXEFIAWLVRGRG; beta-amino acid; oleoyl-gamma-Glu on Lys; C-terminal amide; Sequence is synthesized; (2)..(2) Xaa is bAla; (20)..(20) Xaa is 26Lys[N-e-(N-a-oleoyl-L-g-glutamyl)]; (31)..(31) N-terminal) [G8 series 68],4 days
9,His-aAib-Glu-Gly-Thr-Phe-Thr-Ser-Asp-Val-Cys-Ser-Tyr-Leu-Glu-Gly-Gln-Ala-Ala-Lys[N-ϵ-(N-α-Palmitoyl)]-Glu-Phe-Ile-Ala-Trp-Leu-Val-Arg-Gly-Arg-Gly-NH2 (HXEGTFTSDVCSYLEGQAAXEFIAWLVRGRG; αAib; palmitoyl on Lys; C-terminal amide; Sequence is synthesized; (2)..(2) Xaa is aAib; (20)..(20) Xaa is 26Lys[N-e-(N-a-palmitoyl-L-g-glutamyl)]; (31)..(31) N-terminal) [G4 series 28],7 days
10,His-aAib-Glu-Gly-Thr-Phe-Thr-Ser-Asp-Val-Ser-Cys-Tyr-Leu-Glu-Gly-Gln-Ala-Ala-Lys[N-ϵ-(N-α-Palmitoyl-L-γ-glutamyl)]-Glu-Phe-Ile-Ala-Trp-Leu-Val-Lys[N-ϵ-(N-α-Palmitoyl-L-γ-glutamyl)]-Gly-Arg-Gly-NH2 (HXEGTFTSDVSCYLEGQAAXEFIAWLVXGRG; Aib; two palmitoyl-gamma-Glu on Lys; C-terminal amide; Sequence is synthesized; (2)..(2) Xaa is aAib; (20)..(20) Xaa is 26Lys[N-e-(N-a-palmitoyl-L-g-glutamyl)]; (28)..(28) Xaa is 26Lys[N-e-(N-a-palmitoyl-L-g-glutamyl)]; (31)..(31) N-terminal) [G5 series 42],3 days

# Same assay, conditions: single injection at the same dose (1.126 nmol), subcutaneous
Substance,Hypoglycemic duration,Hypoglycemic duration (days)
2G4 series 26: disulfide-linked homodimer of monomer SEQ ID NO: 26 (HAEGTFTSDVCSYLEGQAAXEFIAWLVRGRG; not fully specified; disulfide-linked homodimer; Sequence is synthesized; (20)..(20) Xaa is 26Lys[N-e-(N-a-oleoyl-L-g-glutamyl)]; (31)..(31) C-terminal),12 days,
2G4 series 30: disulfide-linked homodimer of monomer SEQ ID NO: 30 (HXEGTFTSDVCSYLEGQAAXEFIAWLVRGRG; not fully specified; disulfide-linked homodimer; Sequence is synthesized; (2)..(2) Xaa is bAib; (20)..(20) Xaa is 26Lys[N-e-(N-a-oleoyl-L-g-glutamyl)]; (31)..(31) N-terminal),16 days,
2G5 series 40: disulfide-linked homodimer of monomer SEQ ID NO: 40 (HAEGTFTSDVSCYLEGQAAXEFIAWLVXGRG; disulfide-linked homodimer; Sequence is synthesized; (20)..(20) Xaa is 26Lys[N-e-(N-a-palmitoyl-L-g-glutamyl)]; (28)..(28) Xaa is 26Lys[N-e-(N-a-palmitoyl-L-g-glutamyl)]; (31)..(31) C-terminal),,3 (2G5 peptide) days
2G2 series 17: disulfide-linked homodimer of monomer SEQ ID NO: 17 (chain 1 H[bAib]EGTFTSDVCSYLEGQAAKEFIAWLVK[bAib]R-NH2; chain 2 H[bAib]EGTFTSDVCSYLEGQAAKEFIAWLVK[bAib]R-NH2; disulfide I:11-II:11 (inferred); not fully specified; reading uncertain; also: disulfide-linked homodimer),4 days,
2G6 series 50: disulfide-linked homodimer of monomer SEQ ID NO: 50 (HXEGTFTSDVSCYLEGQAAXEFIAWLVRGRG; disulfide-linked homodimer; Sequence is synthesized; (2)..(2) Xaa is bAla; (20)..(20) Xaa is 26Lys[N-e-(N-a-oleoyl-L-g-glutamyl)]; (31)..(31) N-terminal),16 days,
2G8 series 69: disulfide-linked homodimer of monomer SEQ ID NO: 69 (H[βAla]EGTFTCDVSSYLEGQAAKEFIAWLVR[βAla]R; also: disulfide-linked homodimer),3 days,
2G4 series 25: disulfide-linked homodimer of monomer SEQ ID NO: 25 (HAEGTFTSDVCSYLEGQAAXEFIAWLVRGRG; not fully specified; disulfide-linked homodimer; Sequence is synthesized; (20)..(20) Xaa is 26Lys[N-e-(N-a-palmitoyl-L-g-glutamyl)]; (31)..(31) N-terminal),14 days,
